# Measurements reported in patent US7262215B2, “N-carbacycle monosubstituted indolocarbazoles as protein kinase inhibitors” (NAD AG, priority 2001, dated 2007).
# Legend:
# Type in all cases: biochemical
# Details in all cases: 10 μM compound; NA = not active
# PKC (rat brain) = experiment: Protein Kinase C inhibition assay (PKC), radioactivity-based
# Protocol: (§1) The ERK2 kinase activity assay utilizes a radioactivity-based format in a 96-well PCR plate with radioactive readout. The ERK2 activity was assayed in a 25 μL assay mixture containing 25 mM HEPES (pH 7.0), 250 μM ATP, […], 1 mM DTT, 2% DMSO, 150 ng/mL Myelin Basic Protein (MBP, Sigma M-1891), and 13.6 ng/mL His tagged ERK2 (specific activity=38.1 nmol/min*mg). Compounds were screened for inhibition of the ERK2 kinase activity at a concentration of 10 μM. The kinase reaction was allowed to proceed at 37° C. for 30 minutes, then reaction was stopped by the addition of 5 μL of 0.5M EDTA (pH 8). 15 μL of each solution were then spotted onto the corresponding square of a filtermat (8×12 glassfibre mat 90×120 mm. PE-Wallac 1450–421). The filtermat was allowed to dry and washed once with 10% TCA, 2% PPA, 500 mM NaCl each for 30 minutes at rt. Two further washings in 10% TCA and 2% PPA for 30 minutes were performed, then a final 30 minute wash in 99% EtOH at rt was done and the filtermat was air dried. The dry filtermat was then placed in a sample bag with a Meltilex sheet (Melt-on scintillator sheets […], PE-Wallac 1450–441 for filtermat A) over the filtermat. The bag was trimmed to fit into the microplate heatsealer (PE-Wallac 1495–021). The heatsealer is used to melt the Meltilex on the filtermat. The bag containing the filtermat and the melted Meltilex was then placed into a filter cassette and counted using the Microbeta Jet Scintillation and Luminescence Counter PE-Wallac 1450.
# Inhibition of Protein Kinase C Activity
# The PKA kinase activity assay utilizes a radioactivity-based format in a 96-well PCR plate with radioactive readout. The PKA activity was assayed in a 25 μL assay mixture containing 25 mM HEPES (pH 7.0), 250 μM ATP, 10 mM MgCl2, 1 mM DTT, 1 mM EDTA (pH 8), 2 mM CaCl2, 2% DMSO, 250 ng/mL Histone H1 (Roche 1 004 875), and 165 ng/mL PKC (rat brain, Calbiochem 539494, specific activity=1600 nmol/min*mg), Compounds were screened for inhibition of the PKC kinase activity at a concentration of 10 μM. The kinase reaction was allowed to proceed at 37° C. for 30 minutes, then the reaction was stopped by addition of 5 μL of 0.5M EDTA (pH 8). The remainder of the protocol is identical to the one reported for ERK2.
# GSK3β = biological target: T1, GSK3β (Homo sapiens, UniProt P49841); experiment: Glycogen Synthase Kinase 3β inhibition assay, radioactivity-based
# T1 construct: purchased Upstate Discovery
# T1 sequence (P49841 whole entry, species assumed): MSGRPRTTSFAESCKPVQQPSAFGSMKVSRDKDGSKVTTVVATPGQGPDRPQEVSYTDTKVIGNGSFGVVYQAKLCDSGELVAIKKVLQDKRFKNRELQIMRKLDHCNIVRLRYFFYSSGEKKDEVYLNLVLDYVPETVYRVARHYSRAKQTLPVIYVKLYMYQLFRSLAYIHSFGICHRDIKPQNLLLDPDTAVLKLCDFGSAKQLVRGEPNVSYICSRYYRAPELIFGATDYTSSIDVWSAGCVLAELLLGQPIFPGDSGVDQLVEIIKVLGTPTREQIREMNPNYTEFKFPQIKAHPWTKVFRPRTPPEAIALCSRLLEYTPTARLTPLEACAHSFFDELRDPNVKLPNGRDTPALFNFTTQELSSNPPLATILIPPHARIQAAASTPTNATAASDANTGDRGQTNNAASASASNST
# Protocol: Inhibition of Glycogen Synthase Kinase 3, Activity
# The GSK3, kinase activity assay utilizes a radioactivity-based format in a 96-well PCR plate with radioactive readout. The GSK3β activity was assayed in a 25 μL assay mixture containing 8 mM HEPES (pH 7.0), 250 μM ATP, 0.2 mM EDTA (pH 8), 2% DMSO, 250 ng/mL Myelin Basic Protein (MBP, Sigma M-1891), and 12 ng/mL GSK3 (Upstate Discovery, specific activity=607 nmol/min*GS2 peptide, concentration of 6.05 mg/mL). Compounds were screened for inhibition of the GSK3 P kinase activity at a concentration of 10 μM. The kinase reaction was allowed to proceed at 37° C. for 30 minutes, then the reaction was stopped by addition of 5 μL of 0.5M EDTA (pH 8).
# His tagged ERK2 = His tagged ERK2 (Homo sapiens, UniProt P28482); experiment: Extracellular signal Regulated Kinase 2 inhibition assay (ERK2), radioactivity-based
# Chain of His tagged ERK2 (P28482 whole entry): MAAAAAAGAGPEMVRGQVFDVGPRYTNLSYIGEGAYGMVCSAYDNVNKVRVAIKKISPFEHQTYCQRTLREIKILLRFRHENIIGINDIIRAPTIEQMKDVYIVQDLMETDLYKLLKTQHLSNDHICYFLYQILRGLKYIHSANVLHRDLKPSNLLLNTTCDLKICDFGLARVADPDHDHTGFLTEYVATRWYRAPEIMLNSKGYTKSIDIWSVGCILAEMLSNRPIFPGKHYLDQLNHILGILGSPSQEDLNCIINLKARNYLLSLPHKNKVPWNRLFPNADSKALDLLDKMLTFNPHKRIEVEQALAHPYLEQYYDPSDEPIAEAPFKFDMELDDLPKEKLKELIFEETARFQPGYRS
# Protocol: Inhibition of Extracellular Signal Regulated Kinase 2 (ERK 2) Activity
# as §1
# [1] = biological target: T2, PKA (catalytic subunit, bovine heart) (Bos taurus, UniProt P00517); experiment: Protein Kinase A inhibition assay (PKA), radioactivity-based
# T2 construct: PKA (catalytic subunit, bovine heart, Calbiochem 539486); purchased Calbiochem 539486; host or cells: bovine heart (tissue-derived)
# Protocol: as §1
# Inhibition of Protein Kinase A Activity
# The PKA kinase activity assay utilizes a radioactivity-based format in a 96-well PCR plate with radioactive readout. The PKA activity was assayed in a 25 μL assay mixture containing 25 mM HEPES (pH 7.0), 250 μM ATP, 10 mM MgCl2, 1 mM DTT, 1 mM EBTA (pH 8), 2% DMSO, 250 ng/mL Histone H2B (Roche 223 514), and 2 ng/mL PKA (catalytic subunit, bovine heart, Calbiochem 539486, specific activity=1170 μmol/min*μg). Compounds were screened for inhibition of the PKA kinase activity at a concentration of 10 μM. The kinase reaction was allowed to proceed at 37° C. for 30 minutes, then the reaction was stopped by addition of 5 μL of 0.5M EDTA (pH 8). The remainder of the protocol is identical to the one reported for ERK2.
SMILES,% Inhibition PKC (PKC (rat brain)),inhibition at 10 µM (GSK3β),inhibition at 10 µM (His tagged ERK2),inhibition at 10 µM [1]
COc1ccc(CN2C(=O)c3c(c4c5ccccc5n(C5CCC(O)CC5)c4c4[nH]c5ccccc5c34)C2=O)cc1 (centres unmarked) [NAD133],102.77%,–,–,–
CC(=O)O[C@@H]1C=CC(n2c3ccccc3c3c4c(c5c6ccccc6[nH]c5c32)C(=O)NC4=O)CC1 (mixture of isomers) [NAD135],84.32%,60.8%,43.2%,17.3%
CC(=O)O[C@H]1CC(n2c3ccccc3c3c4c(c5c6ccccc6[nH]c5c32)C(=O)NC4=O)[C@H](O)[C@@H]1O (mixture of isomers) [NAD160],72.37%,30.2%,23.3%,–
CC(=O)O[C@H]1C=CC(n2c3ccccc3c3c4c(c5c6ccccc6[nH]c5c32)C(=O)NC4=O)CC1 (mixture of isomers) [NAD106],52.00%,25.4%,53.4%,17.1%
CCOC(=O)N1C(=O)c2c(c3c4ccccc4n(C4C=C[C@H](NC(C)=O)C4)c3c3[nH]c4ccccc4c23)C1=O (mixture of isomers) [NAD117],68.74%,25%,60%,–
N[C@@H]1C=CC(n2c3ccccc3c3c4c(c5c6ccccc6[nH]c5c32)C(=O)NC4=O)C1 (mixture of isomers) [NAD116],67.47%,18.4%,24.3%,–
N[C@H]1C=CC(n2c3ccccc3c3c4c(c5c6ccccc6[nH]c5c32)C(=O)NC4=O)C1 (mixture of isomers) [NAD040],81.34%,69.8%,97.8%,98%
O=C1NC(=O)c2c1c1c3ccccc3[nH]c1c1c2c2ccccc2n1C1C=C[C@H](Nc2ccccc2)CC1 (mixture of isomers) [NAD148],111.91%,54.1%,41.6%,26.5%
CN1C(=O)c2c(c3c4ccccc4n(C4C[C@H](O)[C@@H](O)[C@H]4O)c3c3[nH]c4ccccc4c23)C1=O (mixture of isomers) [NAD157],55.37%,20.2%,–,–
O=C1NC(=O)c2c1c1c3ccccc3[nH]c1c1c2c2ccccc2n1C1CC[C@H](O)[C@@H](O)[C@H]1O (mixture of isomers) [NAD149],55.37%,94.1%,93.3%,35.2%
O=C1NC(=O)c2c1c1c3ccccc3[nH]c1c1c2c2ccccc2n1C1C=C[C@@H](O)C1 (mixture of isomers) [NAD006],45.48%,83.4%,84.2%,18.8%
O=C1NC(=O)c2c1c1c3ccccc3[nH]c1c1c2c2ccccc2n1C1C=C[C@H](O)C1 (mixture of isomers) [NAD162],58.82%,61.2%,37.4%,19.9%
O=C1NC(=O)c2c1c1c3ccccc3[nH]c1c1c2c2ccccc2n1C1C=C[C@H](Cl)CC1 (mixture of isomers) [NAD085],41.98%,52.2%,57.2%,43.4%
